From publication PMC12196166, “Mechanistic Insight into the Enhanced Anti-Pulmonary Hypertension Efficacy of Wogonin Co-Amorphous” (Pharmaceutics, 2025)

How the values were obtained:
[1] = In vitro dissolution in distilled water (UPLC); format: physicochemical; conditions: 37.0 °C, 100 rpm
Experimental: The wogonin, physical mixture of wogonin and aloperine (Wog+Alop), and Wog-Alop with the theoretical drug content of 6.00 mg were accurately weighed and placed into 200 mL conical flasks containing 90 mL of distilled water at 37.0 °C and 100 rpm. A total of 2 mL of sample solution was withdrawn at predetermined time points (0, 1, 2, 3, 4, 5, 6, 7, 8, 9, 10, 15, 30, 45, and 60 min) and an equal volume of distilled water was immediately supplemented. The sample solutions were filtered through a 0.22 μm microporous membrane and determined by Ultra Performance Liquid Chromatography (UPLC).

PDGF-BB-induced PASMCs [2] = assay: ROS detection (DCFH-DA probe); format: cell-based, Human; conditions: 3 μM, 40 ng/mL PDGF-BB for 48 h, DCFH-DA fluorescence, vs. model group
Experimental: Human PASMCs ([…], Cat. No.: CYH0707) were purchased from Wuhan Enji Life Technology Co., Ltd. (Wuhan, China) […] were cultured in Dulbecco's Modified Eagle Medium (DMEM) medium with 10% fetal bovine serum (FBS) and 1% penicillin/streptomycin (P/S), and maintained in a humidified 5% CO2 incubator at 37 °C. Prior to drug treatment, […] were subjected to serum starvation by culturing in a maintenance medium containing 0.5% FBS for 24 h to synchronize cell cycle progression. […] After 1 h, cells were stimulated with 40 ng/mL PDGF-BB for 48 h in each group except the control group. […] After treatment, cells were loaded with 1 μM 2',7'-dichlorodihydrofluorescein diacetate (DCFH-DA) probe for 20 min at 37 °C in the dark. Nuclei were counterstained with Hoechst 33342 Live Cells Staining Solution (1:100 dilution) for 10 min. Fluorescent imaging was performed using a laser scanning confocal microscope (Leica TCS SP8, Wetzlar, Germany) with excitation/emission settings at 488/525 nm for DCFH-DA and 350/461 nm for Hoechst 33342. ROS-associated fluorescence intensity was quantified using ImageJ 4.4 software.

[3] = Pharmacokinetic study after intragastric administration; format: in vivo; conditions: male, Sprague-Dawley, rat, po, rats, 5 mg/kg as wogonin, plasma
Experimental: Four-week-old male SPF Sprague-Dawley rats (weighing 220 ± 10 g) were purchased from Sporford Biotechnology Co., Ltd. (Beijing, China). and were randomly divided into cages (four rats per cage) and acclimatized for at least three days with free access to food and water. This study was performed with the approval of the Ethics Review Committee for Laboratory Animals of Beijing University of Chinese Medicine (approval number: BUCM-2023032307-1148) and strictly adhered to the relevant guidelines. Laboratory animal license No.: SCXK (Jing) 2019-0010; Laboratory unit use license No.: SYXK (Jing) 2020-0033.
Twenty-four SD rats were randomly divided into three groups of eight rats each. After 3 days of adaptive feeding, they were fasted (free access to water) for 12 h. On the morning of the fourth day, wogonin, Wog+Alop, and Wog-Alop were intragastrically administered at a theoretical dose of 5 mg/kg for wogonin. Plasma samples were collected into heparinized tubes from the oculi choroideae vein at 0, 5, 10, 15, 30, 45, and 60 min and 2, 4, 6, 8, 12, 24, 32, and 48 h after administration. Plasma samples were separated by centrifugation and stored at −80 °C until determination. Ultra-Performance Liquid Chromatography-Tandem Triple Quadrupole Mass Spectrometry (UPLC-QQQ-MS) multi-response monitoring (MRM) mode was used to determine plasma samples, and Masslynx 4.1 was used to calculate plasma drug concentrations at each collection time point. The plasma concentration versus time plots were drawn, and the pharmacokinetic parameters were calculated by DAS 2.1 software. The relative oral bioavailability (RB) was calculated using the following formula: […]

PDGF-BB-induced PASMCs [4] = assay: Cell viability (CCK-8) assay, abnormal proliferation; format: cell-based, Human; conditions: 3 μM, 40 ng/mL PDGF-BB for 48 h, CCK-8, vs. model group
Experimental: Human PASMCs ([…], Cat. No.: CYH0707) were purchased from Wuhan Enji Life Technology Co., Ltd. (Wuhan, China) […] were cultured in Dulbecco's Modified Eagle Medium (DMEM) medium with 10% fetal bovine serum (FBS) and 1% penicillin/streptomycin (P/S), and maintained in a humidified 5% CO2 incubator at 37 °C. Prior to drug treatment, […] were subjected to serum starvation by culturing in a maintenance medium containing 0.5% FBS for 24 h to synchronize cell cycle progression. […] After 1 h, cells were stimulated with 40 ng/mL PDGF-BB for 48 h in each group except the control group. Cell viability was assessed using the Cell Counting Kit-8 (CCK-8) assay according to the manufacturer's protocol. Briefly, 10 μL of CCK-8 reagent was added to each well of pretreated PASMCs, followed by incubation at 37 °C under 5% CO2 for 2-h. The absorbance of each sample was quantified at 450 nm using a microplate reader.

[5] = tested on: monocrotaline (MCT)-induced PH rats; assay: Anti-pulmonary hypertension pharmacodynamics; format: in vivo, Sprague-Dawley rats
Experimental: Four-week-old male SPF Sprague-Dawley rats (weighing 220 ± 10 g) were purchased from Sporford Biotechnology Co., Ltd. (Beijing, China). and were randomly divided into cages (four rats per cage) and acclimatized for at least three days with free access to food and water.
Anti-PH pharmacodynamics were carried out using monocrotaline (MCT)-induced PH rats. Thirty rats were randomly divided into five groups: (A) control group; (B) model group; and three treatment groups (C) Wog group; (D) Wog+Alop group; and (E) Wog-Alop group. MCT was administered by a single femoral vein injection to induce PH. All administered groups of drugs were intragastrically administered from days 1 to 21 at a theoretical dose of 5 mg/kg/day for Wog. After three weeks of administration, the rats were weighed and anesthetized with 20% urethane. The electrocardiogram and right ventricular systolic pressure (RVSP) of rats were measured. The rats were perfused, and the heart and lung tissues were completely removed. The right ventricle (RV) and left ventricle plus ventricular septum (LV + S) were accurately separated and weighted, and the right ventricular hypertrophy index (RVHI) = RV/(LV + S) × 100%, RV mass index (RVMI) = RV/body weight × 100% and lung mass index (LMI) = lung weight/body weight × 100% were calculated. […] Heart tissues were taken for H&E and Masson staining, and lung tissues were stained with resorcinol basic fuchsin and proliferating cell nuclear antigen (PCNA) immunofluorescence.

PDGF-BB-induced PASMCs [6] = assay: Measurement of oxidative stress markers (MDA, GSH, CAT, GPx kits); format: cell-based, Human; conditions: 3 μM, vs. model group
Experimental: Human PASMCs ([…], Cat. No.: CYH0707) were purchased from Wuhan Enji Life Technology Co., Ltd. (Wuhan, China) […] were cultured in Dulbecco's Modified Eagle Medium (DMEM) medium with 10% fetal bovine serum (FBS) and 1% penicillin/streptomycin (P/S), and maintained in a humidified 5% CO2 incubator at 37 °C. Prior to drug treatment, […] were subjected to serum starvation by culturing in a maintenance medium containing 0.5% FBS for 24 h to synchronize cell cycle progression. […] After 1 h, cells were stimulated with 40 ng/mL PDGF-BB for 48 h in each group except the control group. The levels of MDA and glutathione (GSH), as well as the activities of CAT and glutathione peroxidase (GPx) in cells, were measured using commercial assay kits. The treated PASMCs were collected and lysed with protein lysis buffer following the manufacturer's instructions.

[7] = intragastric 5 mg/kg/day as Wog, days 1 to 21, vs. model group

COc1c(O)cc(O)c2c(=O)cc(-c3ccccc3)oc12 [Wogonin]
percentage of dissolution [1]: 2.17% | ROS levels (PDGF-BB-induced PASMCs [2]): Neither Wog nor Alop alone showed notable inhibitory effects | AUC(0-inf) ([3]; n = 8): 77 ± 80.6 ng·h/mL | AUC(0-t) ([3]; n = 8): 49.1 ± 42.1 ng·h/mL | Cmax ([3]; n = 8): 14.8 ± 12.2 ng/mL | Tmax ([3]; n = 8): 1.93 ± 3.41 h | MRT last ([3]; n = 8, read-out: MRT(0–t)): 5.97 ± 4.79 h | MRT inf ([3]; n = 8, read-out: MRT(0–∞)): 12.5 ± 17.5 h | half-life ([3]; n = 8, read-out: t1/2z (converted)): 7.21 ± 9.97 h | inhibition of abnormal proliferation of PDGF-BB-induced PASMC (PDGF-BB-induced PASMCs [4]): almost no inhibitory effects | thickening of the medial wall of small pulmonary artery vessels ([5]; 5 mg/kg/day as Wog, 21 days, resorcinol basic fuchsin staining, vs. model group): inhibit the thickening | P-wave duration [5, 7]: significantly reduce | RVHI (right ventricular hypertrophy index) [5, 7]: not statistically significant | RVMI (RV mass index) [5, 7]: not statistically significant | RVSP (right ventricular systolic pressure) [5, 7]: reduced RVSP, although without statistical significance | increase in MDA levels (PDGF-BB-induced PASMCs [6]): significantly inhibited | reduction in CAT activity (PDGF-BB-induced PASMCs [6]): significantly inhibited | reduction in GPx activity (PDGF-BB-induced PASMCs [6]): significantly inhibited | reduction in GSH levels (PDGF-BB-induced PASMCs [6]): significantly inhibited

C1=C2CCCN[C@H]2[C@@H]2C[C@H]1[C@H]1CCCCN1C2 [Alop, aloperine]
ROS levels (PDGF-BB-induced PASMCs [2]): Neither Wog nor Alop alone showed notable inhibitory effects | inhibition of abnormal proliferation of PDGF-BB-induced PASMC (PDGF-BB-induced PASMCs [4]): almost no inhibitory effects | P-wave duration [5, 7]: significantly reduce | RVHI (right ventricular hypertrophy index) [5, 7]: not statistically significant | RVMI (RV mass index) [5, 7]: not statistically significant | increase in MDA levels (PDGF-BB-induced PASMCs [6]): significantly inhibited | reduction in CAT activity (PDGF-BB-induced PASMCs [6]): significantly inhibited | reduction in GPx activity (PDGF-BB-induced PASMCs [6]): significantly inhibited | reduction in GSH levels (PDGF-BB-induced PASMCs [6]): significantly inhibited
